Test results published in US20260258035A1, “FIVE-MEMBERED AND SIX-MEMBERED NITROGEN-CONTAINING COMPOUND, AND INTERMEDIATE, PREPARATION METHOD AND USE THEREOF” (HANGZHOU SYNRX THERAPEUTICS BIOMEDICAL TECHNOLOGY CO., LTD., priority 2022, published 2026).

Assays:
[1] = test system: HCC1806; assay: Cell viability assay (CellTiter-Glo); type: cell-based, Human; details: Homo sapiens, HCC1806, 168 h, HCC1806, 7 days, CellTiter-Glo; read-out: IC50 (nM) in cell viability assay
[2] = molecular target: PARG (Homo sapiens, UniProt Q86W56); assay: Biochemical assay (PARG, TFMU-ADPr substrate); details: PARG, TFMU-ADPr substrate
Chain of PARG (Q86W56 whole entry): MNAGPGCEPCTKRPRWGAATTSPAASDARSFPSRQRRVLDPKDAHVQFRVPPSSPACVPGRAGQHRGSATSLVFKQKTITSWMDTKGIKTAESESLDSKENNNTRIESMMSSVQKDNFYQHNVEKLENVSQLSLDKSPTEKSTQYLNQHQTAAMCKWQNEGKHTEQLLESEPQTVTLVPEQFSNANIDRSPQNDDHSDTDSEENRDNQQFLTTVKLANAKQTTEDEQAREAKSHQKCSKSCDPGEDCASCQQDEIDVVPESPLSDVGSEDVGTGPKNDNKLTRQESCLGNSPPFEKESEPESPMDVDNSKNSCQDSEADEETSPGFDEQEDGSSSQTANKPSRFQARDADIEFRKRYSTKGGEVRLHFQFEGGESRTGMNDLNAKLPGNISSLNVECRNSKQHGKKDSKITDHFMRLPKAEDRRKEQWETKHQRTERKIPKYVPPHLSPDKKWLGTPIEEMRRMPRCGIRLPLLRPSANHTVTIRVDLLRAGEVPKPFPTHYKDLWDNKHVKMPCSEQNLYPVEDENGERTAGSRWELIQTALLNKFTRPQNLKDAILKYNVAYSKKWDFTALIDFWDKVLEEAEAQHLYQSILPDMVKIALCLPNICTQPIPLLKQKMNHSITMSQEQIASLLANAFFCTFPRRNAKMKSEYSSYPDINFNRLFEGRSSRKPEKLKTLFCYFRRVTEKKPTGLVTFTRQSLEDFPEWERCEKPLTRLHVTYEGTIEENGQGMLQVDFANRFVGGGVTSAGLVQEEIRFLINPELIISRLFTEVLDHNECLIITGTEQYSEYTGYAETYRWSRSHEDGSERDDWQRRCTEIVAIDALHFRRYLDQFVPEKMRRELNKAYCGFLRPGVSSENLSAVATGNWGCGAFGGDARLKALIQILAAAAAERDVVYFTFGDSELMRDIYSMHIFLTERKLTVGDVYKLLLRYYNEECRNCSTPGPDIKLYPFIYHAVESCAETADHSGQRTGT

Row | SMILES | IC50 [1] | IC50 [2]
1 | N#CC1(NS(=O)(=O)c2cc(N3CCN(C(=O)C(O)C(F)(F)F)CC3)c3cnc(-c4nnc(C(F)F)s4)n3c2)CC1 (stereo not shown) [Example 261, N-(1-cyanocyclopropyl)-3-(5-(difluoromethyl)-1,3,4-thiadiazol-2-yl)-8-(4-(3,3,3-trifluoro-2-hydroxypropanoyl)piperazin-1-yl)imidazo[1,5-a]pyridine-6-sulfonamide] | 370 nM | 100 nM
2 | N#CC1(NS(=O)(=O)c2cc(N3CCN(C(=O)[C@H]4CCCN4)CC3)c3cnc(-c4nnc(C(F)(F)F)s4)n3c2)CC1 [Example 265, (R)-N-(1-cyanocyclopropyl)-8-(4-prolylpiperazin-1-yl)-3-(5-(trifluoromethyl)-1,3,4-thiadiazol-2-yl)imidazo[1,5-a]pyridine-6-sulfonamide] | 8000 nM | 158 nM
3 | CC(C)C(=O)NC1CCN(c2cc(S(=O)(=O)NC3(C#N)CC3)cn3c(-c4nnc(C(F)(F)F)s4)ncc23)CC1 [Example 268, N-(1-(6-(N-(1-cyanocyclopropyl)sulfamoyl)-3-(5-(trifluoromethyl)-1,3,4-thiadiazol-2-yl)imidazo[1,5-a]pyridin-8-yl)piperidin-4-yl)isobutyramide] | 2210 nM | 100 nM
4 | N#CC1(NS(=O)(=O)c2cc(N3CCN(C(=O)[C@@H]4CCCN4)CC3)c3cnc(-c4nnc(C(F)(F)F)s4)n3c2)CC1 [Example 270, (S)-N-(1-cyanocyclopropyl)-8-(4-prolylpiperazin-1-yl)-3-(5-(trifluoromethyl)-1,3,4-thiadiazol-2-yl)imidazo[1,5-a]pyridine-6-sulfonamide] | 35900 nM | 91.2 nM
5 | N#CC1(NS(=O)(=O)c2cc(N3CCN(C(=O)[C@@H]4CCNC4)CC3)c3cnc(-c4nnc(C(F)(F)F)s4)n3c2)CC1 [Example 271, (R)-N-(1-cyanocyclopropyl)-8-(4-(pyrrolidine-3-carbonyl)piperazin-1-yl)-3-(5-(trifluoromethyl)-1,3,4-thiadiazol-2-yl)imidazo[1,5-a]pyridine-6-sulfonamide] | 36200 nM | 11.5 nM
6 | N#CC1(NS(=O)(=O)c2cc(N3CCN(C(=O)[C@H]4CCNC4)CC3)c3cnc(-c4nnc(C(F)(F)F)s4)n3c2)CC1 [Example 272, (S)-N-(1-cyanocyclopropyl)-8-(4-(pyrrolidine-3-carbonyl)piperazin-1-yl)-3-(5-(trifluoromethyl)-1,3,4-thiadiazol-2-yl)imidazo[1,5-a]pyridine-6-sulfonamide] | 5410 nM | 7.24 nM
7 | CC1(NS(=O)(=O)c2cc(N3CCN(C(=O)C4CNC4)CC3)c3cnc(-c4nnc(C(F)(F)F)s4)n3c2)CC1 [Example 277, 8-(4-(azetidine-3-carbonyl)piperazin-1-yl)-N-(1-methylcyclopropyl)-3-(5-(trifluoromethyl)-1,3,4-thiadiazol-2-yl)imidazo[1,5-a]pyridine-6-sulfonamide] | 4470 nM | 25.1 nM
8 | N#CC1(NS(=O)(=O)c2cc(N3CCN(C(=O)C4(F)CNC4)CC3)c3cnc(-c4nnc(C(F)(F)F)s4)n3c2)CC1 [Example 278, N-(1-cyanocyclopropyl)-8-(4-(3-fluoroazetidine-3-carbonyl)piperazin-1-yl)-3-(5-(trifluoromethyl)-1,3,4-thiadiazol-2-yl)imidazo[1,5-a]pyridine-6-sulfonamide] | 1980 nM | 40.7 nM
9 | N#CC1(NS(=O)(=O)c2cc(N3CCN(C(=O)[C@@H]4C[C@@H](O)CN4)CC3)c3cnc(-c4nnc(C(F)(F)F)s4)n3c2)CC1 [Example 279, N-(1-cyanocyclopropyl)-8-(4-((2S,4R)-4-hydroxypyrrolidine-2-carbonyl)piperazin-1-yl)-3-(5-(trifluoromethyl)-1,3,4-thiadiazol-2-yl)imidazo[1,5-a]pyridine-6-sulfonamide] | 29900 nM | 95.5 nM
10 | N#CC1(NS(=O)(=O)c2cc(N3CCN(C(=O)C4NCCS4)CC3)c3cnc(-c4nnc(C(F)(F)F)s4)n3c2)CC1 (stereo not shown) [Example 281, N-(1-cyanocyclopropyl)-8-(4-(thiazolidine-2-carbonyl)piperazin-1-yl)-3-(5-(trifluoromethyl)-1,3,4-thiadiazol-2-yl)imidazo[1,5-a]pyridine-6-sulfonamide] | 229 nM | 66.1 nM
11 | CC1(NS(=O)(=O)c2cc(N3CCN(C(=O)C(O)C(F)(F)F)CC3)c3cnc(-c4nnc(C(F)(F)F)s4)n3c2)CC1 (stereo not shown) [Example 282, N-(1-methylcyclopropyl)-8-(4-(3,3,3-trifluoro-2-hydroxypropanoyl)piperazin-1-yl)-3-(5-(trifluoromethyl)-1,3,4-thiadiazol-2-yl)imidazo[1,5-a]pyridine-6-sulfonamide] | 84.3 nM | 20 nM
12 | CC1(NS(=O)(=O)c2cc(N3CCN(C(=O)[C@H]4CCN4)CC3)c3cnc(-c4nnc(C(F)(F)F)s4)n3c2)CC1 [Example 286, (R)-8-(4-(azetidine-2-carbonyl)piperazin-1-yl)-N-(1-methylcyclopropyl)-3-(5-(trifluoromethyl)-1,3,4-thiadiazol-2-yl)imidazo[1,5-a]pyridine-6-sulfonamide] | 235 nM | 3.98 nM
13 | COC1(C(=O)N2CCN(c3cc(S(=O)(=O)NC4(C#N)CC4)cn4c(-c5nnc(C(F)F)s5)ncc34)CC2)CNC1 [Example 289, N-(1-cyanocyclopropyl)-3-(5-(difluoromethyl)-1,3,4-thiadiazol-2-yl)-8-(4-(3-methoxyazetidine-3-carbonyl)piperazin-1-yl)imidazo[1,5-a]pyridine-6-sulfonamide] | 6150 nM | 1.51 nM
14 | CO[C@H]1C[C@H](C(=O)N2CCN(c3cc(S(=O)(=O)NC4(C)CC4)cn4c(-c5nnc(C(F)(F)F)s5)ncc34)CC2)C1 [Example 290, 8-(4-((1r,3r)-3-methoxycyclobutane-1-carbonyl)piperazin-1-yl)-N-(1-methylcyclopropyl)-3-(5-(trifluoromethyl)-1,3,4-thiadiazol-2-yl)imidazo[1,5-a]pyridine-6-sulfonamide] | 151 nM | 14.5 nM

The next lines start with the values.

Row | IC50 [1] | IC50 [2] | SMILES
15 | 250 nM | 28.8 nM | COC(C)C(=O)N1CCN(c2cc(S(=O)(=O)NC3(C#N)CC3)cn3c(-c4nnc(C(F)(F)F)s4)ncc23)CC1 (stereo not shown) [Example 260, N-(1-cyanocyclopropyl)-8-(4-(2-methoxypropanoyl)piperazin-1-yl)-3-(5-(trifluoromethyl)-1,3,4-thiadiazol-2-yl)imidazo[1,5-a]pyridine-6-sulfonamide]
16 | 6640 nM | 75.9 nM | N#CC1(NS(=O)(=O)c2cc(N3CCN(C(=O)[C@H]4CCN4)CC3)c3cnc(-c4nnc(C(F)(F)F)s4)n3c2)CC1 [Example 264, (R)-8-(4-(azetidine-2-carbonyl)piperazin-1-yl)-N-(1-cyanocyclopropyl)-3-(5-(trifluoromethyl)-1,3,4-thiadiazol-2-yl)imidazo[1,5-a]pyridine-6-sulfonamide]
17 | 370 nM | 132 nM | CN(C)C1(C(=O)N2CCN(c3cc(S(=O)(=O)NC4(C#N)CC4)cn4c(-c5nnc(C(F)(F)F)s5)ncc34)CC2)CC1 [Example 266, N-(1-cyanocyclopropyl)-8-(4-(1-(dimethylamino)cyclopropane-1-carbonyl)piperazin-1-yl)-3-(5-(trifluoromethyl)-1,3,4-thiadiazol-2-yl)imidazo[1,5-a]pyridine-6-sulfonamide]
18 | 20000 nM | 79.4 nM | N#CC1(NS(=O)(=O)c2cc(N3CCN(C(=O)[C@@H]4CCN4)CC3)c3cnc(-c4nnc(C(F)(F)F)s4)n3c2)CC1 [Example 269, (S)-8-(4-(azetidine-2-carbonyl)piperazin-1-yl)-N-(1-cyanocyclopropyl)-3-(5-(trifluoromethyl)-1,3,4-thiadiazol-2-yl)imidazo[1,5-a]pyridine-6-sulfonamide]
19 | 5940 nM | 1.91 nM | N#CC1(NS(=O)(=O)c2cc(N3CCN(C(=O)C4CC(N)C4)CC3)c3cnc(-c4nnc(C(F)(F)F)s4)n3c2)CC1 (stereo not shown) [Example 273, 8-(4-(3-aminocyclobutane-1-carbonyl)piperazin-1-yl)-N-(1-cyanocyclopropyl)-3-(5-(trifluoromethyl)-1,3,4-thiadiazol-2-yl)imidazo[1,5-a]pyridine-6-sulfonamide]
20 | 700 nM | 41.7 nM | N#CC1(NS(=O)(=O)c2cc(N3CCN(C(=O)C4(N)CC4)CC3)c3cnc(-c4nnc(C(F)(F)F)s4)n3c2)CC1 [Example 274, 8-(4-(1-aminocyclopropane-1-carbonyl)piperazin-1-yl)-N-(1-cyanocyclopropyl)-3-(5-(trifluoromethyl)-1,3,4-thiadiazol-2-yl)imidazo[1,5-a]pyridine-6-sulfonamide]
21 | 472 nM | 22.9 nM | CNC1(C(=O)N2CCN(c3cc(S(=O)(=O)NC4(C#N)CC4)cn4c(-c5nnc(C(F)(F)F)s5)ncc34)CC2)CC1 [Example 275, N-(1-cyanocyclopropyl)-8-(4-(1-(methylamino)cyclopropane-1-carbonyl)piperazin-1-yl)-3-(5-(trifluoromethyl)-1,3,4-thiadiazol-2-yl)imidazo[1,5-a]pyridine-6-sulfonamide]
22 | 1750 nM | 45.7 nM | N#CC1(NS(=O)(=O)c2cc(N3CCN(C(=O)CO)CC3)c3cnc(-c4nnc(C(F)(F)F)s4)n3c2)CC1 [Example 276, N-(1-cyanocyclopropyl)-8-(4-(2-hydroxyacetyl)piperazin-1-yl)-3-(5-(trifluoromethyl)-1,3,4-thiadiazol-2-yl)imidazo[1,5-a]pyridine-6-sulfonamide]
23 | 539 nM | 3.8 nM | N#CC1(NS(=O)(=O)c2cc(N3CCN(C(=O)C4CC(O)C4)CC3)c3cnc(-c4nnc(C(F)(F)F)s4)n3c2)CC1 (stereo not shown) [Example 283, N-(1-cyanocyclopropyl)-8-(4-(3-hydroxycyclobutane-1-carbonyl)piperazin-1-yl)-3-(5-(trifluoromethyl)-1,3,4-thiadiazol-2-yl)imidazo[1,5-a]pyridine-6-sulfonamide]
